Usually EC50 stands for the concentration at which the effect is half-maximal. Lower therefore signals greater potency.

Molecules are shown by their SMILES.

We go through 25 molecules from patent publication US20110136792A1, “NOVEL CARBOXYLIC ACID ANALOGS AS GLYCOGEN SYNTHASE ACTIVATORS” (priority 2009, published 2011).

This test deals with glycogen synthase. Description: Glycogen Synthase (GS) Assay. In kind it is biochemical. Conditions: coupled pyruvate kinase/lactate dehydrogenase assay, absorbance at 340 nm; for EC50: compound concentration needed to give 50% maximum activation; for GS SC200: compound concentration needed to stimulate 200% of the enzyme activity. As to the method:
The following tests were carried out in order to determine the activity of the compounds of formula (I).
Twelve μL per well of substrate solution containing glycogen (4.32 mg/ml), 2.67 mM UDP-glucose, 21.6 mM phospho(enol)pyruvate and 2.7 mM NADH in 30 mM glycylglycine, pH 7.3 buffer was added into a polystyrene 384-well assay plate (BD Biosciences).
Compound solutions (8 μL/well) at various concentrations (0-300 μM) were added to the assay plate (columns 5-24). Compound solution contains 30 mM glycylglycine, pH 7.3, 40 mM KCl, 20 mM MgCl2, 9.2% DMSO, with (columns 15-24) or without (columns 5-14) 20 mM glucose 6-phosphate.
Enzyme solution (12 μL/well) containing glycogen synthase (16.88 μg/ml), pyruvate kinase (0.27 mg/ml), lactate dehydrogenase (0.27 mg/ml) in 50 mM Tris-HCl, pH 8.0, 27 mM DTT and bovine serum albumin (BSA, 0.2 mg/ml) was added to the assay plate (columns 3-24). As a blank control, enzyme solution without glycogen synthase was added into the top half wells of columns 1-2. To the bottom half wells of columns 1-2 were added a known activator, glucose 6-phosphate (at final concentration 5 mM) in addition to the enzyme solution. The reaction mixture was incubated at room temperature. The assay plate was then read for absorbance at 340 nm on an Envision reader every 3 minutes up to a total of 15 minutes.
The enzyme activity (with or without compound) was calculated by the reaction rate and represented by the optical density change (δOD) per minute. Percent stimulation of glycogen synthase activity by a compound at various concentrations was calculated by the following formula: […]
Where Rs is the reaction rate of the enzyme in the presence of compound and Rt is the reaction rate of the enzyme in the absence of compound.
SC200 is defined as the compound concentration that is needed to stimulate 200% of the enzyme activity. EC50 is defined as the compound concentration that is needed to give 50% maximum activation.
Compounds from Examples 1 through Example 64 were assayed according to assay procedures described above and the result is listed in Table 1 below: […]

Turning to `O=C(O)C1CCS(=O)(=O)N1Cc1cccc(COc2ccc(-c3cc(F)c(F)cc3F)cc2)c1` (racemic) [Example 38, 1,1-Dioxo-2-[3-(2′,4′,5′-trifluoro-biphenyl-4-yloxymethyl)-benzyl]-1lambda*6*-isothiazolidine-3-carboxylic acid], a half-maximal effect (EC50) was put at 130 nM and the “GS SC200” value is 0.05 µM.

For the molecule `Cc1cc(F)c(F)cc1-c1ccc(OCc2cccc(CN3C(C(=O)O)CCS3(=O)=O)c2)cc1` (racemic) [Example 39, 2-[3-(4′,5′-Difluoro-2′-methyl-biphenyl-4-yloxymethyl)-benzyl]-1,1-dioxo-1lambda*6*-isothiazolidine-3-carboxylic acid], the EC50 amounted to 180 nM and the “GS SC200” value amounted to 0.03 µM.

As to `O=C(O)C1CCS(=O)(=O)N1Cc1cccc(COc2ccc(-c3cc(F)c(F)cc3Cl)cc2)c1` (racemic) [Example 40, 2-[3-(2′-Chloro-4′,5′-difluoro-biphenyl-4-yloxymethyl)-benzyl]-1,1-dioxo-1lambda*6*-isothiazolidine-3-carboxylic acid], the response was half-maximal at 200 nM (EC50) and the “GS SC200” value came out at 0.04 µM.

With `COc1cc(F)c(F)cc1-c1ccc(OCc2cccc(CN3C(C(=O)O)CCS3(=O)=O)c2)cc1` (racemic) [Example 43, 2-[3-(4′,5′-Difluoro-2′-methoxy-biphenyl-4-yloxymethyl)-benzyl]-1,1-dioxo-1lambda*6*-isothiazolidine-3-carboxylic acid], the EC50 worked out at 190 nM and the “GS SC200” value stood at 0.03 µM.

Take `COc1cc(F)c(F)cc1-c1ccc(OCc2cccc(CN(CC(=O)O)C(=O)C(C)(C)C)c2)cc1` [Example 1, [[3-(4′,5′-Difluoro-2′-methoxy-biphenyl-4-yloxymethyl)-benzyl]-(2,2-dimethyl-propionyl)-amino]-acetic acid]: a half-maximal response (EC50) required 1340 nM and the “GS SC200” value is 0.21 µM.

Consider `COc1cc(F)c(F)cc1-c1ccc(OCc2cccc(CN(CC(=O)O)C(=O)CC(C)C)c2)cc1` [Example 2, [[3-(4′,5′-Difluoro-2′-methoxy-biphenyl-4-yloxymethyl)-benzyl]-(3-methyl-butyryl)-amino]-acetic acid], for which it took 1080 nM to reach a half-maximal effect (EC50) and the “GS SC200” value was 0.13 µM.

Take `COc1cc(F)c(F)cc1-c1ccc(OCc2cccc(CN(CC(=O)O)C(=O)N3CCOCC3)c2)cc1` [Example 3, [[3-(4′,5′-Difluoro-2′-methoxy-biphenyl-4-yloxymethyl)-benzyl]-(morpholine-4-carbonyl)-amino]-acetic acid]: the EC50 amounted to 690 nM and the “GS SC200” value was determined as 0.11 µM.

In the case of `COc1cc(F)c(F)cc1-c1ccc(OCc2cccc(CN(CC(=O)O)C(=O)C3CCC3)c2)cc1` [Example 4, {Cyclobutanecarbonyl-[3-(4′,5′-difluoro-2′-methoxy-biphenyl-4-yloxymethyl)-benzyl]-amino}-acetic acid], it took 720 nM to reach a half-maximal effect (EC50) and the “GS SC200” value is 0.18 µM.

As for `COc1cc(F)c(F)cc1-c1ccc(OCc2cccc(CN(CC(=O)O)C(=O)c3ccccc3)c2)cc1` [Example 5, {Benzoyl-[3-(4′,5′-difluoro-2′-methoxy-biphenyl-4-yloxymethyl)-benzyl]-amino}-acetic acid], the EC50 is 450 nM and the “GS SC200” value stood at 0.09 µM.

Turning to `COc1cc(F)c(F)cc1-c1ccc(OCc2cccc(CN(CC(=O)O)C(=O)OC(C)C)c2)cc1` [Example 6, {[3-(4′,5′-Difluoro-2′-methoxy-biphenyl-4-yloxymethyl)-benzyl]-isopropoxycarbonyl-amino}-acetic acid], a half-maximal effect (EC50) was put at 470 nM and the “GS SC200” value came to 0.03 µM.

On to `CCS(=O)(=O)N(CC(=O)O)Cc1cccc(COc2ccc(-c3cc(F)c(F)cc3OC)cc2)c1` [Example 7, {[3-(4′,5′-Difluoro-2′-methoxy-biphenyl-4-yloxymethyl)-benzyl]-ethanesulfonyl-amino}-acetic acid], for which the EC50 stood at 310 nM and the “GS SC200” value is 0.04 µM.

Take `COc1cc(F)c(F)cc1-c1ccc(OCc2cccc(CN(CC(=O)O)S(=O)(=O)c3ccccc3)c2)cc1` [Example 8, {Benzenesulfonyl-[3-(4′,5′-difluoro-2′-methoxy-biphenyl-4-yloxymethyl)-benzyl]-amino}-acetic acid]: the response was half-maximal at 910 nM (EC50) and the “GS SC200” value came to 0.17 µM.

For the molecule `COc1cc(F)c(F)cc1-c1ccc(OCc2cccc(CN(CC(=O)O)S(=O)(=O)C3CC3)c2)cc1` [Example 9, {Cyclopropanesulfonyl-[3-(4′,5′-difluoro-2′-methoxy-biphenyl-4-yloxymethyl)-benzyl]-amino}-acetic acid], the EC50 was 520 nM and the “GS SC200” value amounted to 0.06 µM.

Consider `COc1cc(F)c(F)cc1-c1ccc(OCc2cccc(CN(CC(=O)O)S(C)(=O)=O)c2)cc1` [Example 10, {[3-(4′,5′-Difluoro-2′-methoxy-biphenyl-4-yloxymethyl)-benzyl]-methanesulfonyl-amino}-acetic acid], for which it took 290 nM to reach a half-maximal effect (EC50) and the “GS SC200” value is 0.03 µM.

Consider `CC(C)(C)C(=O)N(CC(=O)O)Cc1cccc(COc2ccc(-c3ccc(F)cc3F)cc2)c1` [Example 11, [[3-(2′,4′-Difluoro-biphenyl-4-yloxymethyl)-benzyl]-(2,2-dimethyl-propionyl)-amino]-acetic acid], for which the EC50 was 3670 nM and the “GS SC200” value stood at 0.97 µM.

Regarding `O=C(O)CN(Cc1cccc(COc2ccc(-c3ccc(F)cc3F)cc2)c1)C(=O)C1CC1` [Example 12, {Cyclopropanecarbonyl-[3-(2′,4′-difluoro-biphenyl-4-yloxymethyl)-benzyl]-amino}-acetic acid], the EC50 turned out to be 4310 nM and the “GS SC200” value turned out to be 0.75 µM.

As to `O=C(O)CN(Cc1cccc(COc2ccc(-c3ccc(F)cc3F)cc2)c1)C(=O)N1CCOCC1` [Example 13, [[3-(2′,4′-Difluoro-biphenyl-4-yloxymethyl)-benzyl]-(morpholine-4-carbonyl)-amino]-acetic acid], the EC50 came out at 930 nM and the “GS SC200” value stood at 0.10 µM.

In the case of `Cn1ccnc1C(=O)N(CC(=O)O)Cc1cccc(COc2ccc(-c3ccc(F)cc3F)cc2)c1` [Example 14, [[3-(2′,4′-Difluoro-biphenyl-4-yloxymethyl)-benzyl]-(1-methyl-imidazole-2-carbonyl)-amino]-acetic acid], the EC50 stood at 1310 nM and the “GS SC200” value was determined as 0.15 µM.

Take `O=C(O)CN(Cc1cccc(COc2ccc(-c3ccc(F)cc3F)cc2)c1)C(=O)c1cccnc1` [Example 15, [[3-(2′,4′-Difluoro-biphenyl-4-yloxymethyl)-benzyl]-(pyridine-3-carbonyl)-amino]-acetic acid]: a half-maximal effect (EC50) was put at 1430 nM and the “GS SC200” value was 0.15 µM.

For the molecule `O=C(O)CN(Cc1cccc(COc2ccc(-c3ccc(F)cc3F)cc2)c1)C(=O)c1ccccn1` [Example 16, [[3-(2′,4′-Difluoro-biphenyl-4-yloxymethyl)-benzyl]-(pyridine-2-carbonyl)-amino]-acetic acid], it took 1540 nM to reach a half-maximal effect (EC50) and the “GS SC200” value was found to be 0.43 µM.

As for `COCC(C)C(=O)N(CC(=O)O)Cc1cccc(COc2ccc(-c3ccc(F)cc3F)cc2)c1` (centres unmarked) [Example 17, [[3-(2′,4′-Difluoro-biphenyl-4-yloxymethyl)-benzyl]-(3-methoxy-2-methyl-propionyl)-amino]-acetic acid], the EC50 amounted to 1530 nM and the “GS SC200” value worked out at 0.36 µM.

As for `CCS(=O)(=O)N(CC(=O)O)Cc1cccc(COc2ccc(-c3cc(F)c(F)cc3F)cc2)c1` [Example 18, {Ethanesulfonyl-[3-(2′,4′,5′-trifluoro-biphenyl-4-yloxymethyl)-benzyl]-amino}-acetic acid], a half-maximal response (EC50) required 160 nM and the “GS SC200” value amounted to 0.07 µM.

Regarding `COC(=O)N(CC(=O)O)Cc1cccc(COc2ccc(-c3cc(F)c(F)cc3OC)cc2)c1` [Example 19, {[3-(4′,5′-Difluoro-2′-methoxy-biphenyl-4-yloxymethyl)-benzyl]-methoxycarbonyl-amino}-acetic acid], the EC50 is 1820 nM and the “GS SC200” value was found to be 0.42 µM.

`CCOC(=O)N(CC(=O)O)Cc1cccc(COc2ccc(-c3cc(F)c(F)cc3OC)cc2)c1` [Example 20, {[3-(4′,5′-Difluoro-2′-methoxy-biphenyl-4-yloxymethyl)-benzyl]-ethoxycarbonyl-amino}-acetic acid]: the EC50 was 5240 nM and the “GS SC200” value came to 0.50 µM.

Take `COc1cc(F)c(F)cc1-c1ccc(OCc2cccc(CN(CC(=O)O)C(C)=O)c2)cc1` [Example 21, {Acetyl-[3-(4′,5′-difluoro-2′-methoxy-biphenyl-4-yloxymethyl)-benzyl]-amino}-acetic acid]: a half-maximal effect (EC50) was put at 430 nM and the “GS SC200” value stood at 0.16 µM.
